Data as given in ChEMBL document CHEMBL5442741, “ASAP - In vitro kinase profile” (2024).
“And” between values parts separate entries of the source, which are not always exact repeats. Identical values can stand only once.

Columns and labels:
[1] = molecular target: Serine/threonine-protein kinase 10 (Homo sapiens) (UniProt O94804); test: Enzymatic radiometric [Km ATP] KinaseProfiler LeadHunter assay, kinase: LOK, catalogue number: 14-686KP The assay has been performed by Eurofins Discovery.; details: ATP concentration 120.0 uM, Test compound concentration 10.0 uM
Sequence of Serine/threonine-protein kinase 10 (Homo sapiens) (O94804 whole entry, looked up): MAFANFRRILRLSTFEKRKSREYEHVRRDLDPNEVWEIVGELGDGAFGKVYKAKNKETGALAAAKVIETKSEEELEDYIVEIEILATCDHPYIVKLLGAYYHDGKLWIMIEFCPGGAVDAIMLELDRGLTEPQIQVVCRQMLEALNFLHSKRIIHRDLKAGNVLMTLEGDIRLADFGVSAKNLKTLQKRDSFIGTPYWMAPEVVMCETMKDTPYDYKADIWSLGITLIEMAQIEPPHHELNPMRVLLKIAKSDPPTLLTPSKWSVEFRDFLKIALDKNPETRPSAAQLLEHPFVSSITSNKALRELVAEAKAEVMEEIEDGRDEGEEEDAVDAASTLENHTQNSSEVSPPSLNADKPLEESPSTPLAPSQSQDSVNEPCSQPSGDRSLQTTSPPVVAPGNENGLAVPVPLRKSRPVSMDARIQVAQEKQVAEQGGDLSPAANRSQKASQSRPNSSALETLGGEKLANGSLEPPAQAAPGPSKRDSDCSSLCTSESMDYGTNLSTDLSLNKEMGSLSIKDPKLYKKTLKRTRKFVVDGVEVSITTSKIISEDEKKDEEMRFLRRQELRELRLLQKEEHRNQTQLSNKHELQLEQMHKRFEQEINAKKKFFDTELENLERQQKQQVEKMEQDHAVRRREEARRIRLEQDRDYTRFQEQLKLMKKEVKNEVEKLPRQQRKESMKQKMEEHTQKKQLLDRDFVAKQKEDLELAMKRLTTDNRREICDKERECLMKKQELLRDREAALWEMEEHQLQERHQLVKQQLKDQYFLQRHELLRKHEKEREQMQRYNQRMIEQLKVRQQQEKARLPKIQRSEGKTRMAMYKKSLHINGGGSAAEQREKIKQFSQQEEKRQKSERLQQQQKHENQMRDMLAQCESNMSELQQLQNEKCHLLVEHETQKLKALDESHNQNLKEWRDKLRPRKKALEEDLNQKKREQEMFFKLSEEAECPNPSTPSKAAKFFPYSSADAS

[2] = molecular target: Protein kinase C alpha type (Homo sapiens) (UniProt P17252); test: Enzymatic radiometric [Km ATP] KinaseProfiler LeadHunter assay, kinase: PKC-alpha, catalogue number: 14-484KP The assay has been performed by Eurofins Discovery.; details: ATP concentration 45.0 uM, Test compound concentration 10.0 uM
[3] = molecular target: Ribosomal protein S6 kinase alpha-1 (Homo sapiens) (UniProt Q15418); test: Enzymatic radiometric [Km ATP] KinaseProfiler LeadHunter assay, kinase: Rsk1, catalogue number: 14-509KP The assay has been performed by Eurofins Discovery.; details: ATP concentration 45.0 uM, Test compound concentration 10.0 uM
Sequence of Ribosomal protein S6 kinase alpha-1 (Homo sapiens) (Q15418 whole entry): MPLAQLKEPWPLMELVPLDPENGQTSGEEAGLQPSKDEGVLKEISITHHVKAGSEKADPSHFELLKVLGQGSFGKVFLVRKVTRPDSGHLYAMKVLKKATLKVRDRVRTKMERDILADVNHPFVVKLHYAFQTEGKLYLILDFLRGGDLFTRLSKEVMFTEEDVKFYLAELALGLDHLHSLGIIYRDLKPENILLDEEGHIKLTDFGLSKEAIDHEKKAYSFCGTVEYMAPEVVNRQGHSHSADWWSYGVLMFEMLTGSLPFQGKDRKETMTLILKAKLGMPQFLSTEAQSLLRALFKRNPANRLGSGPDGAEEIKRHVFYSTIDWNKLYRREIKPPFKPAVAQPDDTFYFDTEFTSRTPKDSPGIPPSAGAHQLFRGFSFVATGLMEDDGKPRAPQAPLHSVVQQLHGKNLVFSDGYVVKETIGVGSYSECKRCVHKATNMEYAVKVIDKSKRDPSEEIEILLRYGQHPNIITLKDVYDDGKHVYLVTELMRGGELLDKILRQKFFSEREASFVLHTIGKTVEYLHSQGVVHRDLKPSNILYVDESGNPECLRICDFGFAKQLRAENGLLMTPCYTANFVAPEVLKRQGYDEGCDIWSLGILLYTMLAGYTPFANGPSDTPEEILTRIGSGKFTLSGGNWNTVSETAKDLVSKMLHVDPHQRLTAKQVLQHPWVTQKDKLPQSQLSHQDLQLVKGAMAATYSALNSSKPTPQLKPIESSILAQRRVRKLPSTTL

[4] = molecular target: T1, Mitogen-activated protein kinase kinase kinase 5 (Homo sapiens) (UniProt Q99683); test: Enzymatic radiometric [Km ATP] KinaseProfiler LeadHunter assay, kinase: ASK1, catalogue number: 14-606KP The assay has been performed by Eurofins Discovery.; details: ATP concentration 200.0 uM, Test compound concentration 10.0 uM
T1 sequence (whole entry): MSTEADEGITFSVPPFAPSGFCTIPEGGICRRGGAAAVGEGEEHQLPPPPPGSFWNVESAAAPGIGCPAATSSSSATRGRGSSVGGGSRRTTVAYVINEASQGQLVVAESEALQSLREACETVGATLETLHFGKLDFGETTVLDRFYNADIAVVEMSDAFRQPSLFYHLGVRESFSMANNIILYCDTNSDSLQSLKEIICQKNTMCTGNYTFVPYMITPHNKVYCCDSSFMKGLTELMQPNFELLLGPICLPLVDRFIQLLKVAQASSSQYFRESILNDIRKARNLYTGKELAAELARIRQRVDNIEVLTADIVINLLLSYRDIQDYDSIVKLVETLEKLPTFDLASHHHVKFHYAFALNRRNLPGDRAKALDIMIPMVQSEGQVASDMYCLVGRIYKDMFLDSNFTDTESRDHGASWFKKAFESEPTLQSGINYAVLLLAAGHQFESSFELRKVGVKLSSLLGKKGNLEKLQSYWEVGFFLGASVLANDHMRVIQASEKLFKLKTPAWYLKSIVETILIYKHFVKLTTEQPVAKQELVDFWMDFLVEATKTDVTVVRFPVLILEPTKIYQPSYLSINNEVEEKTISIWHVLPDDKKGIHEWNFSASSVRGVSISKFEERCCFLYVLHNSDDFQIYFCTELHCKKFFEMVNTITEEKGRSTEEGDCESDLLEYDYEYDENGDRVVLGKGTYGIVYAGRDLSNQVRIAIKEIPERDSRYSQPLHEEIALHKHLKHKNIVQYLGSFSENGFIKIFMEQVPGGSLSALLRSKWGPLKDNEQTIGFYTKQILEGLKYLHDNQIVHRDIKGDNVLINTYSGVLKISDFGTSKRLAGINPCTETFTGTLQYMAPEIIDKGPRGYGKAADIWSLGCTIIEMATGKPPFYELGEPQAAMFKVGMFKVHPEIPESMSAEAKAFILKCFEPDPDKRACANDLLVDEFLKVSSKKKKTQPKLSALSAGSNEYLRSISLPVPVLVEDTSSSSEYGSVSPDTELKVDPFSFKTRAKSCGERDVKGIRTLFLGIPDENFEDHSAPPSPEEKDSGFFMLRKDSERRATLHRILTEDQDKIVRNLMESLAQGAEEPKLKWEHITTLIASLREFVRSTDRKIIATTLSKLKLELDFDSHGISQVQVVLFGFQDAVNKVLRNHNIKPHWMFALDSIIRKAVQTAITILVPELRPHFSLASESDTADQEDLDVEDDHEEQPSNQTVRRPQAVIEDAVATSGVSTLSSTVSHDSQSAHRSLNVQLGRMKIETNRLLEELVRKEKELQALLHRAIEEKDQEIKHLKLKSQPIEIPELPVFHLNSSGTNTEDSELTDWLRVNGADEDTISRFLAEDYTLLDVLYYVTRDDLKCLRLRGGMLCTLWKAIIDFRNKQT

[5] = molecular target: CDK6/cyclin D3 (Homo sapiens) (UniProt P30281+Q00534); test: Enzymatic radiometric [Km ATP] KinaseProfiler LeadHunter assay, kinase: CDK6/cyclinD3, catalogue number: 14-519KP The assay has been performed by Eurofins Discovery.; type: protein-complex assay; details: ATP concentration 200.0 uM, Test compound concentration 10.0 uM
[6] = molecular target: CDK9/cyclin T1 (Homo sapiens) (UniProt O60563+P50750); test: Enzymatic radiometric [Km ATP] KinaseProfiler LeadHunter assay, kinase: CDK9/cyclin T1, catalogue number: 14-685KP The assay has been performed by Eurofins Discovery.; type: protein-complex assay; details: ATP concentration 45.0 uM, Test compound concentration 10.0 uM
[7] = molecular target: Calcium/calmodulin-dependent protein kinase type 1 (Homo sapiens) (UniProt Q14012); test: Enzymatic radiometric [Km ATP] KinaseProfiler LeadHunter assay, kinase: CaMKI, catalogue number: 14-663KP The assay has been performed by Eurofins Discovery.; details: ATP concentration 200.0 uM, Test compound concentration 10.0 uM
Sequence of Calcium/calmodulin-dependent protein kinase type 1 (Homo sapiens) (Q14012 whole entry, looked up): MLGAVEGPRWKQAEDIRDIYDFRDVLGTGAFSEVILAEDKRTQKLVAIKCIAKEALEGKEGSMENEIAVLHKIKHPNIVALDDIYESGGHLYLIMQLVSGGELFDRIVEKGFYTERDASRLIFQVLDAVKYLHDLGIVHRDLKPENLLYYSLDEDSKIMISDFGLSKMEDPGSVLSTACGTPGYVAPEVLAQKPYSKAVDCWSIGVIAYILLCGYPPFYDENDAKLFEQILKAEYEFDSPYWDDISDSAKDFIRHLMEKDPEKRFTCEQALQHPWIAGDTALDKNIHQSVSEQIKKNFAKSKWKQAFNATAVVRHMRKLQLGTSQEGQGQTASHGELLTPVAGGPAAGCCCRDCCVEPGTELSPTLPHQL

| Activity [1] [%] | Activity [2] | Activity [3] [%] | Activity [4] [%] | Activity [5] [%] | Activity [6] [%] | Activity [7] | SMILES |
| --- | --- | --- | --- | --- | --- | --- | --- |
| 102 | 93% | 102 | 103 | 102 | 109 | – | COc1ccc([C@H](Cc2nnn[nH]2)NC(=O)c2ncnc3[nH]ccc23)cc1 |
| 122 | 87% | 136 | 108 | – | 130 | 87% | Cn1ncc(-c2cc3c(N[C@@H](c4ccc5c(n4)OCCO5)C(C)(C)C)ncnc3[nH]2)c1C#N |
| 104 | 104% | 92 | 108 | 99 | 114 | 94% | CC(C)[C@@H](Nc1ncnc2[nH]ccc12)c1ccc2c(c1)S(=O)(=O)CCC2 |
| 83 | 95% | 94 | 103 | 107 | 61 | 101% | CNC(=O)Cn1cc(-c2cc3c(N[C@@H](c4ccc5c(c4)S(=O)(=O)CCC5)C(C)C)ncnc3[nH]2)cn1 |
| 92 | 99% | 90 | – | 92 | 40 | 87% | CNCc1cc(-c2cc3c(N[C@@H](c4ccc5c(c4)S(=O)(=O)CCC5)C(C)C)ncnc3[nH]2)co1 |
| 96 | 95% | 98 | 101 | 100 | 117 | 100% | COc1ccc([C@@H](Cc2nnn[nH]2)NC(=O)c2ncnc3[nH]ccc23)cc1 |
| 99 | 101% | 94 | 105 | 99 | 108 | 100% | CC(C)[C@@H](Nc1ncnc2[nH]c(C(=O)N[C@@H]3CCN(C)C3)cc12)c1ccc2c(c1)S(=O)(=O)CCC2 |
| 102 | 98% | 102 | 105 | 105 | 112 | 92% | CC(C)[C@H](Nc1ncnc2[nH]ccc12)c1ccc2c(c1)S(=O)(=O)CCC2 |
| 45 | – | 120 | 106 | 102 | 79 | 104% | CC(C)[C@H](Nc1ncnc2[nH]c(-c3cnn(C)c3C#N)cc12)c1ccc2c(n1)OCCO2 |
| – | 90% and 99% | – | – | – | – | 104% and 95% | CC(C)[C@@H](Nc1ncnc2[nH]c(-c3cnn(C)c3C#N)cc12)c1ccc2c(n1)OCCO2 |
| 93 | 93% | 110 | 103 | 106 | 57 | 101% | Cc1nn(C)cc1-c1cc2c(N[C@H](c3ccc4c(c3)S(=O)(=O)CCC4)C(C)C)ncnc2[nH]1 |
| 97 | 108% | 88 | 102 | 97 | 103 | 101% | C[C@H](C(=O)O)[C@@H](NC(=O)c1ncnc2[nH]ccc12)c1ccc(Br)cc1 |
